The record followed here is US20230248766A1, “METHODS OF TREATING OXIDATIVE STRESS TO MODULATE REDOX BALANCE, PREVENTING OXIDATIVE STRESS INDUCED CELL DAMAGE AND DEATH” (Redox Balance, LLC, priority 2019, published 2023).

For assay [1], the system named is tomato plants. The assay can be described thus: Plant growth enhancement by treatment with water-soluble C60. It is filed as in vivo. The text has this: Treated plants weighed 2X untreated plants. […] Example 7. […] Treated plants weighed 2× untreated plants.
The test system of assay [2] is seeds. In words: Seed pre-treatment to enhance germination. To be noted: soaking seeds for 1 hour prior to placing in growing medium. It is filed as in vivo.

polyhydroxy-C60: the “weight of treated plants relative to untreated plants” value in assay [1] (tomato plants after two weeks) is 2 X. In assay [1] (treatment of clones before initial planting), the “increases in growth rate” value is on record as “up to two times”. In addition, the germination entry in assay [2] is “significant enhancement of germination”.
